Assay results from patent publication US20120129870A1, “PIPERAZINYL DERIVATIVES USEFUL AS MODULATORS OF THE NEUROPEPTIDE Y2 RECEPTOR” (priority 2007, published 2012).

What follows are molecules tested against T1, NPY Y2 receptor (Homo sapiens, UniProt P49146) (assay: Neuropeptide Y2 radioligand binding assay ([125I]PYY, KAN-Ts membranes)). Conditions: KAN-Ts membranes endogenously expressing Y2, [125I]PYY (80 pM), 1 h at rt.
T1 sequence (P49146 1-381): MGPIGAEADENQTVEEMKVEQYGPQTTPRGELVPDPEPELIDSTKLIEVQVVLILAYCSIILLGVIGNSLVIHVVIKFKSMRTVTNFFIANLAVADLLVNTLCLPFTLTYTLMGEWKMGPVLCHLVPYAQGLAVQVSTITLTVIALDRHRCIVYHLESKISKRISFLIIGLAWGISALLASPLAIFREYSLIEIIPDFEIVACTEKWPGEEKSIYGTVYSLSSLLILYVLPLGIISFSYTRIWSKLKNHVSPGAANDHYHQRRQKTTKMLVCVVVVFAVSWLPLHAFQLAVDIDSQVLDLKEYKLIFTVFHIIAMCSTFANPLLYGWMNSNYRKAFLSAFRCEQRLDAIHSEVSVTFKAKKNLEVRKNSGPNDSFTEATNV
Set-up: endogenous in cells; host or cells: KAN-Ts cells (membrane preparation)
Protocol: KAN-Ts endogenously expressing Y2 receptors were used for the radioligand binding assay. Cells were grown to confluence on 150 cm^2 tissue culture plates, washed with phosphate-buffered saline (PBS), and scraped into 50 mL tubes. After centrifugation, the supernatant was aspirated, and the pellets frozen and stored at −80° C. Thawed pellets were homogenized with a polytron tissue grinder for 15 sec in 20 mM Tris-HCl, 5 mM EDTA. The homogenate was centrifuged at 800×g for 5 min and the collected supernatant was recentrifuged at 25000×g for 25 min. The resulting pellet was resuspended in binding buffer (20 mM HEPES, 120 mM NaCl, 0.22 mM KH2PO4, 1.3 mM CaCl2, 0.8 mM MgSO4). Membranes were incubated with [^125I]PYY (80 pM) in the presence or absence of test compound for 1 h at rt. The reaction was stopped by filtration through GF/C filter plates pre-soaked in 0.3% polyethylenimine and subsequently washed with Tris 50 mM, 5 mM EDTA buffer. Plates were dried for 1 h in a 55° C. oven, scintillation fluid was added and the radioactivity was counted in a Packard TopCount. Specific binding to the NPY receptor subtypes was determined by radioactivity that was bound in the presence of […]. Each binding experiment was repeated three to eight times, each in duplicate. IC50 values (i.e. concentration of unlabelled peptide or antagonist required to compete for 50% of specific binding to the radioligand) were calculated using the GraphPad Prism software (GraphPad Software Inc., San Diego Calif.) with a fit to a sigmoidal dose response curve. Apparent K, values were calculated as Ki=IC50/(1+C/KD), where C is concentration of the radioligand.
With `CCC(CC)C(=O)Nc1ccc(N2CCN(C(c3ccc(F)cc3)c3ccc(F)cc3)CC2)c(F)c1` [Compound 12, N-(4-{4-[Bis-(4-fluoro-phenyl)-methyl]-piperazin-1-yl}-3-fluoro-phenyl)-2-ethyl-butyramide] the IC50 was 0.33 µM. Work on `CCC(CC)C(=O)Nc1ccc(N2CCN(C(c3ccccc3)c3ncno3)CC2)c(F)c1` (centres unmarked) [Compound 231, 2-Ethyl-N-{3-fluoro-4-[4-([1,2,4]-oxadiazol-5-yl-phenyl-methyl)-piperazin-1-yl]-phenyl}-butyramide] yielded an IC50 of 0.22 µM. `CCC(CC)C(=O)Nc1ccc(N2CCN(C(c3ccccc3)C3CCOC3)CC2)c(F)c1` (centres unmarked) [Compound 114, 2-Ethyl-N-(3-fluoro-4-{4-[phenyl-(tetrahydro-furan-3-yl)-methyl]-piperazin-1-yl}-phenyl)-butyramide] showed an IC50 of 0.46 µM. `CC(=O)Nc1ccc(N2CCN(C(c3ccccc3)c3ncco3)CC2)c(C#N)c1` (centres unmarked) [Compound 103, N-{3-Cyano-4-[4-(oxazol-2-yl-phenyl-methyl)-piperazin-1-yl]-phenyl}-acetamide] showed an IC50 of over 10 µM. In the case of `Cc1cc(NC(=O)C(C)C)ccc1N1CCN(C(c2ccccc2)c2ncco2)CC1` (centres unmarked) [Compound 74, N-{3-Methyl-4-[4-(oxazol-2-yl-phenyl-methyl)-piperazin-1-yl]-phenyl}-isobutyramide], the IC50 is reported as 2.6 µM. `CCC(CC)C(=O)Nc1ccc(N2CCN(C(c3ccc(F)cc3)C3CCC3)CC2)c(F)c1` (centres unmarked) [Compound 106, N-(4-{4-[Cyclobutyl-(4-fluoro-phenyl)-methyl]-piperazin-1-yl}-3-fluoro-phenyl)-2-ethyl-butyramide] was tested, and the IC50 was 0.25 µM. Molecule `Cc1cccc(Nc2ccc(N3CCN(C(c4ccccc4)c4ncco4)CC3)c(F)c2)n1` (centres unmarked) [Compound 62, {3-Fluoro-4-[4-(oxazol-2-yl-phenyl-methyl)-piperazin-1-yl]-phenyl}-(6-methyl-pyridin-2-yl)-amine] has an IC50 of 4.7 µM. Work on `Cn1ccnc1Nc1ccc(N2CCN(C(c3ccccc3)c3ncco3)CC2)c(F)c1` (centres unmarked) [Compound 58, {3-Fluoro-4-[4-(oxazol-2-yl-phenyl-methyl)-piperazin-1-yl]-phenyl}-(1-methyl-1H-imidazol-2-yl)-amine] yielded an IC50 of over 10 µM. `CCC(CC)C(=O)Nc1ccc(N2CCN(C(c3ccccc3)c3noc(C(F)(F)F)n3)CC2)c(F)c1` (centres unmarked) [Compound 234, 2-Ethyl-N-(3-fluoro-4-{4-[phenyl-(5-trifluoromethyl-[1,2,4]-oxadiazol-3-yl)-methyl]-piperazin-1-yl}-phenyl)-butyramide] was tested, and the IC50 was 0.12 µM. `CCC(CC)C(=O)Nc1ccc(N2CCN(C(c3ccccc3)c3nc(-c4ccccc4)no3)CC2)c(F)c1` (centres unmarked) [Compound 242, 2-Ethyl-N-(3-fluoro-4-{4-[phenyl-(3-phenyl-[1,2,4]-oxadiazol-5-yl)-methyl]-piperazin-1-yl}-phenyl)-butyramide] was tested, and the IC50 was 0.071 µM. `CCC(CC)C(=O)Nc1ccc(N2CCN(C(c3ccc(OC)cc3)c3ncco3)CC2)c(F)c1` (centres unmarked) [Compound 140, 2-Ethyl-N-(3-fluoro-4-{4-[(4-methoxy-phenyl)-oxazol-2-yl-methyl]-piperazin-1-yl}-phenyl)-butyramide] was tested, and the IC50 was 0.32 µM.

Same assay, conditions: apparent Ki=IC50/(1+C/KD)
For `CCC(CC)C(=O)Nc1ccc(N2CCN(C(c3ccc(F)cc3)c3ccc(F)cc3)CC2)c(C#N)c1` [Compound 307, N-(4-{4-[Bis(4-fluorophenyl)methyl]piperazin-1-yl}-3-cyanophenyl)-2-ethylbutanamide], the Ki was 0.15 µM. For `N#Cc1cc(NC(=O)C2CC2)ccc1N1CCN(C(c2ccccc2)c2ccncc2)CC1` (centres unmarked) [Compound 322, Cyclopropanecarboxylic acid {3-cyano-4-[4-(phenyl-pyridin-4-yl-methyl)-piperazin-1-yl]-phenyl}-amide], the Ki was 0.034 µM. `Cc1ccccc1C(c1ccccc1)N1CCN(c2ccc(NC(=O)c3c(C)noc3C)cc2C#N)CC1` (centres unmarked) [Compound 301, N-(3-Cyano-4-{4-[(2-methylphenyl)(phenyl)methyl]piperazin-1-yl}phenyl)-3,5-dimethylisoxazole-4-carboxamide] was tested, and the Ki was 0.14 µM.
